Consider 26 compounds from patent US9096596B2 (Janssen Pharmaceutica NV, priority 2013, dated 2015).

As a reminder, the IC50 is the concentration needed to halve the response being measured.

Holding throughout (type): cell-based
One assay has as its target rat P2X7 (Rattus norvegicus (Rat), UniProt Q64663). The assay can be described thus: Ca2+ flux (FLIPR) in 1321N1 cells expressing recombinant rat P2X7 channel. To be noted: 250 μM BzATP, Calcium-4 dye. As for the experimental part:
(§1) 1321N1 cells expressing the recombinant human, rat or mouse P2X7 channel was cultured in HyQ DME/(HyClone/Dulbecco's Modified Eagle Medium) high glucose supplemented with 10% Fetal Bovine Serum (FBS) and appropriate selection marker. Cells were seeded at a density of 25000 cells/well (96-well clear bottom black walled plates) in 100 μl volume/well. On the day of the experiment, cell plates were washed with assay buffer, containing (in mM): 130 NaCl, 2 KCl, 1 CaCl2, 1 MgCl2, 10 HEPES, 5 glucose; pH 7.40 and 300 mOs. After the wash, cells were loaded with the Calcium-4 dye (Molecular Device) and incubated in the dark for 60 minutes. Test compounds were prepared at 250× the test concentration in neat DMSO. Intermediate 96-well compound plates were prepared by transferring 1.2 μL of the compound into 300 μL of assay buffer. A further 3× dilution occurred when transferring 50 μL/well of the compound plate to 100 μL/well in the cell plate. Cells were incubated with test compounds and dye for 30 minutes. […] The fluorescence change was measured 180 seconds after adding the agonist.
On the technique in general: A change in cytosolic calcium serves as a functional read-out for many receptors and channels.

Assay [1] concerns the target T1, P2X7 (Homo sapiens (Human), UniProt Q99572). Put plainly: Ca2+ flux (FLIPR) in 1321N1 cells expressing recombinant human P2X7 channel. To be noted: 250 μM BzATP, Calcium-4 dye. On the procedure:
as §1

Assay [2] deals with T1, P2X7. Put plainly: P2X7 antagonism in human PBMCs (IL-1β release, ELISA). To be noted: test compound 10 μM, IL-1β release in human PBMCs, LPS 30 ng/ml + Bz-ATP 0.5 mM, read-out: PBMC 10 μM (% control). On the procedure:
Human blood was collected using a blood donor program. […] Cells were incubated for an additional 1.5 hours. […] In Table 2, when the data cell has been left blank, it is intended to mean that the compound was not tested in that assay.
A general note: ELISA stands for enzyme-linked immunosorbent assay.

T1 sequence (Q99572 whole entry): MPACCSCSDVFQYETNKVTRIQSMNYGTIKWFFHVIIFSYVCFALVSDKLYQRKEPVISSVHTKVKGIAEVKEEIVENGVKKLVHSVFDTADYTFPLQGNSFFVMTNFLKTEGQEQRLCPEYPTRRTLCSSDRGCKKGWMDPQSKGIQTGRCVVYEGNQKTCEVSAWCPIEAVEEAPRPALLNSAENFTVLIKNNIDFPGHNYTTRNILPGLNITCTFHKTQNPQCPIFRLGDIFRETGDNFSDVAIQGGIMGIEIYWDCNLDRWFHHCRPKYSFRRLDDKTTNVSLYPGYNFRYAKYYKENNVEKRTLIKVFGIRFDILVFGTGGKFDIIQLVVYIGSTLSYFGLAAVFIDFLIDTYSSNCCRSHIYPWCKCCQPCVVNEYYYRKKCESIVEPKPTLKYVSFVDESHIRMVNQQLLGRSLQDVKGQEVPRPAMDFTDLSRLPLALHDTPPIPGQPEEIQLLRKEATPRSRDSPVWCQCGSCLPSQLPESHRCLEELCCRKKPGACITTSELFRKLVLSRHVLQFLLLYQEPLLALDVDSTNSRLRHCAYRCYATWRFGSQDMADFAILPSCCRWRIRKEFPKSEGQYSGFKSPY
Sequence of rat P2X7 (Q64663 whole entry): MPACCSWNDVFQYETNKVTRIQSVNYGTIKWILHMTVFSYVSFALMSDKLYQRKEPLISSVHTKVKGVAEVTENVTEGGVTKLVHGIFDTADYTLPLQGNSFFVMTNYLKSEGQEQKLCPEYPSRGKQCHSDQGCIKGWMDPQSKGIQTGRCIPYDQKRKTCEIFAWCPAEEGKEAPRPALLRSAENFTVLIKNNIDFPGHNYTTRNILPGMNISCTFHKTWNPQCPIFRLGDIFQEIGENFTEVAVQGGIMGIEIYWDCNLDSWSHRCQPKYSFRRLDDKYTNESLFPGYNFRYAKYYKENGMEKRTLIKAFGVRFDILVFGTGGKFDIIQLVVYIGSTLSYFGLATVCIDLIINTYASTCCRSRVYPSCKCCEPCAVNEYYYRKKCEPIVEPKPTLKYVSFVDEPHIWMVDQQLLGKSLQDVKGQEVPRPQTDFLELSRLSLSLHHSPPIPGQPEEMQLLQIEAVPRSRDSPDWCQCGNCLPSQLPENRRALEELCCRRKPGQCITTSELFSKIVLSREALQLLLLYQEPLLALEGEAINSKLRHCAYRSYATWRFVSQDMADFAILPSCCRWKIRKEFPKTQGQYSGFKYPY

Take `COCCn1ccc(-c2nc(C)nc3c2C[C@H](C)N(C(=O)c2cccc(C(F)(F)F)c2Cl)C3)n1` (single isomer, unassigned) [Example 127, (S*)-(2-chloro-3-(trifluoromethyl)phenyl)(4-(1-(2-methoxyethyl)-1H-pyrazol-3-yl)-2,6-dimethyl-5,6-dihydropyrido[3,4-d]pyrimidin-7(8H)-yl)methanone]: the IC50 on rat P2X7 and on P2X7 [1] was greater than 10 µM each time.

On to `Cn1cc(-c2ncnc3c2CCN(C(=O)c2cccc(Cl)c2Cl)C3)cn1` [Example 5, 7-[(2,3-Dichlorophenyl)carbonyl]-4-(1-methyl-1H-pyrazol-4-yl)-5,6,7,8-tetrahydropyrido[3,4-d]pyrimidine], for which the IC50 was greater than 10 µM on rat P2X7 and 12.8 µM on P2X7 [1].

For `CCc1nc2c(c(-c3ccn[nH]3)n1)CC(C)N(C(=O)c1ccc(Cl)c(F)c1Cl)C2` (centres unmarked) [Example 104, (2,4-dichloro-3-fluorophenyl)(2-ethyl-6-methyl-4-(1H-pyrazol-5-yl)-5,6-dihydropyrido[3,4-d]pyrimidin-7(8H)-yl)methanone], at P2X7 [2], the remaining activity at 10 µM is -1.3%. The IC50 on rat P2X7 is 0.0237 µM.

As for `Cc1nc2c(c(-c3ccc(F)cc3)n1)CCN(C(=O)c1cccc(Cl)c1Cl)C2` [Example 28, 7-[(2,3-Dichlorophenyl)carbonyl]-4-(4-fluorophenyl)-2-methyl-5,6,7,8-tetrahydropyrido[3,4-d]pyrimidine], the remaining activity at 10 µM at P2X7 [2] stood at 12.4%. For the same compound, the IC50 on rat P2X7 is 8.57 µM.

For the compound `Cc1nc2c(c(-c3ccnn3C)n1)CC(C)N(C(=O)c1cccc(C(F)(F)F)c1Cl)C2` (centres unmarked) [Example 73, (2-chloro-3-(trifluoromethyl)phenyl)(2,6-dimethyl-4-(1-methyl-1H-pyrazol-5-yl)-5,6-dihydropyrido[3,4-d]pyrimidin-7(8H)-yl)methanone], the remaining activity at 10 µM on P2X7 [2] stood at 2.2%. In addition, the IC50 on rat P2X7 stood at 0.0178 µM.

Turning to `Cc1nc2c(c(-c3ccn[nH]3)n1)C[C@@H](C)N(C(=O)c1ccc(Cl)cc1F)C2` (single isomer, unassigned) [Example 88, (R*)-(4-chloro-2-fluorophenyl)(2,6-dimethyl-4-(1H-pyrazol-5-yl)-5,6-dihydropyrido[3,4-d]pyrimidin-7(8H)-yl)methanone], on P2X7 [1], the IC50 is 11 µM.

For the compound `Cc1nc2c(c(-c3ccn[nH]3)n1)C[C@H](C)N(C(=O)c1cccc(C(F)(F)F)c1C)C2` (single isomer, unassigned) [Example 79, (S*)-(2,6-dimethyl-4-(1H-pyrazol-5-yl)-5,6-dihydropyrido[3,4-d]pyrimidin-7(8H)-yl)(2-methyl-3-(trifluoromethyl)phenyl)methanone], the IC50 on P2X7 [1] was 3.24 µM.

Regarding `Nc1nc2c(c(-c3ccn[nH]3)n1)CCN(C(=O)c1cccc(C(F)(F)F)c1Cl)C2` [Example 55, 7-{[2-Chloro-3-(trifluoromethyl)phenyl]carbonyl}-4-(1H-pyrazol-5-yl)-5,6,7,8-tetrahydropyrido[3,4-d]pyrimidin-2-amine], on P2X7 [2], the remaining activity at 10 µM was -2.1%. For the same compound, the IC50 at rat P2X7 amounted to 0.117 µM.

For `Nc1nc2c(c(-c3ccccc3)n1)CCN(C(=O)c1cccc(Cl)c1Cl)C2` [Example 29, 7-[(2,3-Dichlorophenyl)carbonyl]-4-phenyl-5,6,7,8-tetrahydropyrido[3,4-d]pyrimidin-2-amine], the IC50 on P2X7 [1] was 0.796 µM.

`O=C(c1cccc(Cl)c1Cl)N1CCc2c(ncnc2-c2cn[nH]c2)C1` [Example 4, 7-[(2,3-Dichlorophenyl)carbonyl]-4-(1H-pyrazol-4-yl)-5,6,7,8-tetrahydropyrido[3,4-d]pyrimidine]: the IC50 amounted to 12.5 µM on rat P2X7 and 0.388 µM on P2X7 [1].

For `Cc1nc2c(c(-c3cnoc3)n1)CCN(C(=O)c1cccc(C(F)(F)F)c1Cl)C2` [Example 49, 7-{[2-Chloro-3-(trifluoromethyl)phenyl]carbonyl}-4-isoxazol-4-yl-2-methyl-5,6,7,8-tetrahydropyrido[3,4-d]pyrimidine], at P2X7 [2], the remaining activity at 10 µM stood at 16.3%.

Turning to `Cc1nc2c(c(-c3ccn[nH]3)n1)CCN(C(=O)c1cccc(C(F)(F)F)c1F)C2` [Example 51, 7-{[2-Fluoro-3-(trifluoromethyl)phenyl]carbonyl}-2-methyl-4-(1H-pyrazol-5-yl)-5,6,7,8-tetrahydropyrido[3,4-d]pyrimidine], the remaining activity at 10 µM at P2X7 [2] was 17.3%.

As for `Cc1nc2c(c(-c3ccccc3)n1)CCN(C(=O)c1cccc(C(F)(F)F)c1Cl)C2` [Example 32, 7-{[2-Chloro-3-(trifluoromethyl)phenyl]carbonyl}-2-methyl-4-phenyl-5,6,7,8-tetrahydropyrido[3,4-d]pyrimidine], the IC50 on P2X7 [1] was 0.265 µM.

On to `Cc1nc2c(c(-c3ccn[nH]3)n1)C[C@@H](C)N(C(=O)c1ccc(F)cc1F)C2` (single isomer, unassigned) [Example 94, (R*)-(2,4-difluorophenyl)(2,6-dimethyl-4-(1H-pyrazol-5-yl)-5,6-dihydropyrido[3,4-d]pyrimidin-7(8H)-yl)methanone], for which the IC50 on rat P2X7 and on P2X7 [1] was greater than 10 µM each time.

Consider `Cc1nc2c(c(-c3ccn[nH]3)n1)CC(C)N(C(=O)c1ccc(F)c(Cl)c1Cl)C2` (centres unmarked) [Example 80, (2,3-dichloro-4-fluorophenyl)(2,6-dimethyl-4-(1H-pyrazol-5-yl)-5,6-dihydropyrido[3,4-d]pyrimidin-7(8H)-yl)methanone], for which the remaining activity at 10 µM on P2X7 [2] was determined as 18.4%.

Turning to `Cc1nc2c(c(-c3ccn[nH]3)n1)CC(C)N(C(=O)c1cccc(Cl)c1Cl)C2` (centres unmarked) [Example 67, (2,3-dichlorophenyl)(2,6-dimethyl-4-(1H-pyrazol-5-yl)-5,6-dihydropyrido[3,4-d]pyrimidin-7(8H)-yl)methanone], the remaining activity at 10 µM at P2X7 [2] is -1.3%. In addition, the IC50 at rat P2X7 turned out to be 0.0145 µM.

Turning to `CC1c2ncnc(-c3ccn[nH]3)c2CCN1C(=O)c1ccc(F)c(Cl)c1Cl` (centres unmarked) [Example 118, (2,3-dichloro-4-fluorophenyl)(8-methyl-4-(1H-pyrazol-5-yl)-5,6-dihydropyrido[3,4-d]pyrimidin-7(8H)-yl)methanone], the remaining activity at 10 µM at P2X7 [2] was -0.6%. The IC50 at rat P2X7 was 0.021 µM.

On to `Cc1nc2c(c(-c3ccn[nH]3)n1)CC(C)N(C(=O)c1cc(Cl)ccc1Cl)C2` (centres unmarked) [Example 86, (2,5-dichlorophenyl)(2,6-dimethyl-4-(1H-pyrazol-5-yl)-5,6-dihydropyrido[3,4-d]pyrimidin-7(8H)-yl)methanone], for which the remaining activity at 10 µM at P2X7 [2] was found to be 92.2%.

With `CN(C)c1nc2c(c(-c3ccccc3)n1)CCN(C(=O)c1cccc(Cl)c1Cl)C2` [Example 25, 7-[(2,3-Dichlorophenyl)carbonyl]-N,N-dimethyl-4-phenyl-5,6,7,8-tetrahydropyrido[3,4-d]pyrimidin-2-amine], the remaining activity at 10 µM at P2X7 [2] worked out at 10.8%.

Take `Cc1nc2c(c(-c3ccn[nH]3)n1)CC(C)N(C(=O)c1ccc(Cl)cc1Cl)C2` (centres unmarked) [Example 83, (2,4-dichlorophenyl)(2,6-dimethyl-4-(1H-pyrazol-5-yl)-5,6-dihydropyrido[3,4-d]pyrimidin-7(8H)-yl)methanone]: on P2X7 [2], the remaining activity at 10 µM was found to be 2.7%.

Take `CC1c2ncnc(-c3ccn[nH]3)c2CCN1C(=O)c1cccc(C(F)(F)F)c1Cl` (centres unmarked) [Example 112, (2-chloro-3-(trifluoromethyl)phenyl)(8-methyl-4-(1H-pyrazol-5-yl)-5,6-dihydropyrido[3,4-d]pyrimidin-7(8H)-yl)methanone]: at P2X7 [2], the remaining activity at 10 µM is -1.8%. Moreover, the IC50 at rat P2X7 turned out to be 0.016 µM.

On to `CCc1nc2c(c(-c3ccn[nH]3)n1)CC(C)N(C(=O)c1cccc(C(F)(F)F)c1Cl)C2` (centres unmarked) [Example 98, (2-chloro-3-(trifluoromethyl)phenyl)(2-ethyl-6-methyl-4-(1H-pyrazol-5-yl)-5,6-dihydropyrido[3,4-d]pyrimidin-7(8H)-yl)methanone], for which the remaining activity at 10 µM on P2X7 [2] turned out to be 13.2%.

Regarding `CN(C)c1nc2c(c(-c3ccccc3)n1)CCN(C(=O)c1cccc(C(F)(F)F)c1Cl)C2` [Example 26, 7-{[2-Chloro-3-(trifluoromethyl)phenyl]carbonyl}-N,N-dimethyl-4-phenyl-5,6,7,8-tetrahydropyrido[3,4-d]pyrimidin-2-amine], on P2X7 [2], the remaining activity at 10 µM worked out at 16.1%.

For `Cc1cccc(C(=O)N2CCc3c(ncnc3-c3cnn(C)c3)C2)c1Cl` [Example 6, 7-[(2-Chloro-3-methylphenyl)carbonyl]-4-(1-methyl-1H-pyrazol-4-yl)-5,6,7,8-tetrahydropyrido[3,4-d]pyrimidine], at P2X7 [2], the remaining activity at 10 µM was determined as 49.5%.

Turning to `O=C(c1cccc(Cl)c1Cl)N1CCc2c(ncnc2-n2cccn2)C1` [Example 22, 7-[(2,3-Dichlorophenyl)carbonyl]-4-(1H-pyrazol-1-yl)-5,6,7,8-tetrahydropyrido[3,4-d]pyrimidine], the results for the IC50 on rat P2X7 and at P2X7 [1] were 28.1 µM and 0.198 µM, respectively.

With `Cc1nc2c(c(-c3ccn[nH]3)n1)CCN(C(=O)c1cccc(C(F)(F)F)c1C)C2` [Example 52, 2-Methyl-7-{[2-methyl-3-(trifluoromethyl)phenyl]carbonyl}-4-(1H-pyrazol-5-yl)-5,6,7,8-tetrahydropyrido[3,4-d]pyrimidine], the remaining activity at 10 µM at P2X7 [2] was 9.3%.
